From US9517279B2, “2-alkoxy-11-hydroxyaporphine derivatives and uses thereof” (The McLean Hospital Corporation, priority 2010, dated 2016)
Where a name gives a salt, the structure may show the parent alone. Read-outs that look alike come from different tables or passages of the source.

Legend:
[1] = biological target: T1, D1^low (Rattus norvegicus, UniProt P18901); test: Competitive radioreceptor binding, D1 low-affinity state, rat striatum [3H]SCH23390
T1 construct: membrane-containing homogenates of rat corpus striatum tissue; from tissue; host or cells: rat corpus striatum

[2] = biological target: T2, D2^low (Rattus norvegicus, UniProt P61169); test: Competitive radioreceptor binding, D2 low-affinity state, rat striatum [3H]domperidone
T2 construct: membrane-containing homogenates of rat corpus striatum tissue; from tissue; host or cells: rat corpus striatum

[3] = biological target: T3, D2^high (Rattus norvegicus, UniProt P61169); test: Competitive radioreceptor binding, D2 high-affinity state, rat striatum [3H]domperidone; conditions: for D2^high binding affinity (in words): comparison with analogue
T3 construct: membrane-containing homogenates of rat corpus striatum tissue; from tissue; host or cells: rat corpus striatum

[4] = biological target: T4, D1^high (Rattus norvegicus, UniProt P18901); test: Competitive radioreceptor binding, D1 high-affinity state, rat striatum [3H]SCH23390
T4 construct: membrane-containing homogenates of rat corpus striatum tissue; from tissue; host or cells: rat corpus striatum

[5] = biological target: T5, human D3 clone (Homo sapiens, UniProt P35462); test: Competitive binding, human D3 clone [3H]domperidone; conditions: for Ki: human D3 clone, [3H]domperidone
T5 construct: expressed in transfected cells

[6] = biological target: T6, D3^high (Homo sapiens, UniProt P35462); test: D3 high-affinity state binding (footnote g); conditions: footnote g of Table 1
T6 construct: expressed in transfected cells

[7] = biological target: T7, D3 rat clone (Rattus norvegicus, UniProt P19020); test: Competitive binding, D3 rat clone [3H]domperidone
T7 construct: expressed in transfected cells

[8] = biological target: T8, D1 human clone (D1^low) (Homo sapiens, UniProt P21728); test: Competitive binding, D1 human clone [3H]SCH23390
T8 construct: expressed in transfected cells

[9] = rat striatum, [3H]domperidone, read-out: Ki D2^high
[10] = rat striatum, [3H]SCH23390, read-out: Ki D1^low (class)

T7 sequence (P19020 whole entry): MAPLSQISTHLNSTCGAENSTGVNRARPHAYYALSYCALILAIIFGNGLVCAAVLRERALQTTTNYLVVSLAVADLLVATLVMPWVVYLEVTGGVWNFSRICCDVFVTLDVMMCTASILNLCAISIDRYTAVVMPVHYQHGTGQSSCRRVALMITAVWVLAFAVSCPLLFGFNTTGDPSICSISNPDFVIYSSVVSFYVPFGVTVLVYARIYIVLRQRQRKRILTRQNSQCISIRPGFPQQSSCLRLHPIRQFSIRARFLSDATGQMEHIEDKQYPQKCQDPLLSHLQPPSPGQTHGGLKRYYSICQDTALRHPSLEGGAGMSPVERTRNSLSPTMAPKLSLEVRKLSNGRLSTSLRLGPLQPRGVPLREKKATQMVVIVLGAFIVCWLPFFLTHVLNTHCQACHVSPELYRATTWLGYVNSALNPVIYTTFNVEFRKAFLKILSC
T5 sequence (P35462 whole entry): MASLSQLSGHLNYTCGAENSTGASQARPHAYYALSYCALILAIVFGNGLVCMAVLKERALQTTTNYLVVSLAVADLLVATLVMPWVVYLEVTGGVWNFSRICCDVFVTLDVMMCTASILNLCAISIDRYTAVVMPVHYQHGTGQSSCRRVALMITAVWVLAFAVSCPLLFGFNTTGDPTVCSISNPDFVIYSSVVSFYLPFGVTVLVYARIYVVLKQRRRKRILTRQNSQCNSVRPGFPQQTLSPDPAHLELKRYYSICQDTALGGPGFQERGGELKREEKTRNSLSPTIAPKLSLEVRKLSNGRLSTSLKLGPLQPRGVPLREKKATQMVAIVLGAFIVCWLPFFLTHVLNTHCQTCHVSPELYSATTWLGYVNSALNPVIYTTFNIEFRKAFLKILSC
T2 sequence (P61169 whole entry): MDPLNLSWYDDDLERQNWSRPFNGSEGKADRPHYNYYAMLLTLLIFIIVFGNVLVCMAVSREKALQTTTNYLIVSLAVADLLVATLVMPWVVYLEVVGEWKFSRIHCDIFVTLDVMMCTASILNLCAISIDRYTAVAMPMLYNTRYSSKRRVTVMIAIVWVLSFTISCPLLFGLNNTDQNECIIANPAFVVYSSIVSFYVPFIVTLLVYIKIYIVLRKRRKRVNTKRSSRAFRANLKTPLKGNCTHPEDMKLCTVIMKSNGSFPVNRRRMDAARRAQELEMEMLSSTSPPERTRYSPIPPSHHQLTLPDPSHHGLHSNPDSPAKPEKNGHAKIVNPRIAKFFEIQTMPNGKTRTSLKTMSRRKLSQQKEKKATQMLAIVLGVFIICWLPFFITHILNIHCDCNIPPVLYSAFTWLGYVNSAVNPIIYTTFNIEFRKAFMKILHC
T3 sequence (P61169 whole entry): as above
T1 sequence (P18901 whole entry): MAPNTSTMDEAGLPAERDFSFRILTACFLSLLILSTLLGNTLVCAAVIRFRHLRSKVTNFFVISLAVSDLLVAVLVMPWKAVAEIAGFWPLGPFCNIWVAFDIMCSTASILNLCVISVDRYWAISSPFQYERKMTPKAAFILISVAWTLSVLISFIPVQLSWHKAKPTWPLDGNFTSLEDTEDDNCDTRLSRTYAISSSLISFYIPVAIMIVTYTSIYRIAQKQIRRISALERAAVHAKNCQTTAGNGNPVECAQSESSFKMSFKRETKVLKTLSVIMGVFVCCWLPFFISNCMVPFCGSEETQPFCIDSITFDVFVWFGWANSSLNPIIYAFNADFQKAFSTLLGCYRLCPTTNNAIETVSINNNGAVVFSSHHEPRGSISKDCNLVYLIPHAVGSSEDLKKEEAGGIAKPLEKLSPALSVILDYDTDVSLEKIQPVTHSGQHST
T4 sequence (P18901 whole entry): as above
T8 sequence (P21728 whole entry): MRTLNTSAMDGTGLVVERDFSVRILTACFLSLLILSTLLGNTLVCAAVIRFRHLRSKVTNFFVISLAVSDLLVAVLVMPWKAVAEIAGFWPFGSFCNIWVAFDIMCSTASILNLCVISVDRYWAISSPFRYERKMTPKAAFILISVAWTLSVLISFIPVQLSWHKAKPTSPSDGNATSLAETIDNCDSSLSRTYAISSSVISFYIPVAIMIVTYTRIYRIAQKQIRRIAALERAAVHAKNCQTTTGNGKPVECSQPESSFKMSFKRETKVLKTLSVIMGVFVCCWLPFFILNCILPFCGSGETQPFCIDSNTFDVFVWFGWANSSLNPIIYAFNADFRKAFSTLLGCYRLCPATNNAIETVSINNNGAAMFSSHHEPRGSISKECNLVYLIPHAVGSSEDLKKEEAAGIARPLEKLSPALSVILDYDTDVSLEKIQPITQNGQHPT
T6 sequence (P35462 whole entry): as the sequence (P35462 whole entry) above

In the case of `CCCN1CCc2cc(OCCF)cc3c2[C@H]1Cc1ccc(O)c(O)c1-3` (as salt: HCl) [8b, R(−)-2-Fluoroethyoxy-NPA], the melting point is reported as 203 to 205 °C (dec.).
With `CCN1CCc2cc(OCCCF)cc3c2[C@H]1Cc1ccc(O)c(O)c1-3` (as salt: HCl) [8c, R(−)-2-(3-Fluoropropanoxy) 10,11-dihydroxy-N-ethylnoraporphine] the melting point was 174 to 176 °C (dec.).
For `CCN1CCc2cc(OCCF)cc3c2[C@H]1Cc1ccc(O)c(O)c1-3` (as salt: HCl) [8d, R(−)-2-fluoroethoxy-N-ethylnorapomorphine], the melting point was 163 to 165 °C.
For `CCN1CCc2cc(OCCI)cc3c2[C@H]1Cc1ccc(O)c(O)c1-3` (as salt: HCl) [8e, R(−)-2-iodoethoxy-N-ethylnorapomorphine], the melting point was 155 to 163 °C (dec.).
With `CN1CCc2cc(OCCCF)cc3c2[C@H]1Cc1ccc(O)c(O)c1-3` (as salt: HCl) [8f, R(−)-2-(3-Fluoropropanoxy) 10,11-dihydroxyaporphine] the melting point was 170 to 175 °C (dec.).
For `CCN1CCc2cc(OCCCF)cc3c2[C@H]1Cc1cccc(O)c1-3` (as salt: HCl) [11c], the melting point was 156 to 158 °C (dec.).
For `Oc1cccc2c1-c1cccc3c1[C@@H](C2)N(CCCF)CC3` (as salt: HCl) [compound 6, R(−)-11-Hydroxy-N-(3-fluoropropyl)noraporphine], the melting point was 195 to 197 °C (dec.).
For `CN1CCc2cc(OCCF)cc3c2[C@H]1Cc1ccc(O)c(O)c1-3` (as salt: salt) [8g, R(−)-2-(2-Fluoroethoxy) 10,11-dihydroxyaporphine], the melting point was 236 to 238 °C (dec.).
`CCCN1CCc2cc(OC)cc3c2[C@H]1Cc1ccc(O)c(O)c1-3` [2b, 2-MeO-NPA, reference compound] gave a Ki [1] of over 2000 nM, a Ki [2] of 805 ± 140 nM and a Ki [3, 9] of 5.1 ± 1.3 nM. For the same compound, the Ki [4] was 8.1 ± 0.7 nM.
Compound `CCCN1CCc2cc(F)cc3c2[C@H]1Cc1ccc(O)c(O)c1-3` [2c, 2-F-NPA, reference compound] has a Ki [1, 10] of over 2000 nM, a Ki [2] of 1800 ± 340 nM and a Ki [3, 9] of 2.7 ± 1.3 nM. For the same compound, the “Ki D1^high” value [4] was “No D1^high”.
Compound `CCCN1CCc2cccc3c2[C@H]1Cc1cccc(O)c1-3` [3b, reference compound] has a Ki [5] of 1.7 ± 0.25 µM.
Work on `CCCN1CCc2cc(OCCCF)cc3c2[C@H]1Cc1ccc(O)c(O)c1-3` [8a, R(−)-2-(3-fluoropropanoxy)-NPA] yielded a Ki [1] of over 2000 nM, a Ki [5] of 0.43 ± 0.064 µM and a Ki [2] of 3000 nM. The Ki [3] was 27 nM, the Ki [3, 9] was 28 ± 15 nM and the “Ki D1^high” value [4] was “No D1^high”.
With `CCCN1CCc2cc(OCCF)cc3c2[C@H]1Cc1ccc(O)c(O)c1-3` [8b, R(−)-2-Fluoroethyoxy-NPA] the Ki [1, 10] was over 2000 nM, the Ki [5] was 2.2 ± 0.33 µM and the Ki [2] was 990 ± 35 nM. For the same compound, the Ki [3, 9] was 3.7 nM and the “Ki D1^high” value [4] was “No D1^high”.
With `CCN1CCc2cc(OCCCF)cc3c2[C@H]1Cc1ccc(O)c(O)c1-3` [8c, R(−)-2-(3-Fluoropropanoxy) 10,11-dihydroxy-N-ethylnoraporphine] the Ki [1, 10] was over 2000 nM, the Ki [2] was 1600 ± 780 nM and the “fold increase in D2^high affinity” value ([3]; in comparison to 8a) was about 4 fold. The Ki [3, 9] was 6.1 ± 3 nM and the “Ki D1^high” value [4] was “No D1^high”.
For `CCN1CCc2cc(OCCF)cc3c2[C@H]1Cc1ccc(O)c(O)c1-3` [8d, R(−)-2-fluoroethoxy-N-ethylnorapomorphine], the Ki [1, 10] was over 2000 nM, the Ki [2] was 2400 ± 1500 nM and the “fold improvement in D2^high binding affinity” value ([3]; compared with 8c) was “more than 2 fold”. For the same compound, the Ki [3, 9] was 2.5 nM and the “Ki D1^high” value [4] was “No D1^high”.
Compound `CCN1CCc2cc(OCCI)cc3c2[C@H]1Cc1ccc(O)c(O)c1-3` [8e, R(−)-2-iodoethoxy-N-ethylnorapomorphine] has a Ki [1, 10] of over 2000 nM, a Ki ([5]; bound given in μM) of over 10 µM and a Ki [2] of 770 ± 230 nM. For the same compound, the Ki [3] was 5 ± 2.3 nM, the “D2^high binding affinity (in words)” value [3] was “slight drop” and the “selectivity for D2^high over D1, D3, and D2^low” value ([3]; in words) was “high selectivity”. For the same compound, the “Ki D1^high” value [4] was “No D1^high”.
In the case of `CN1CCc2cc(OCCCF)cc3c2[C@H]1Cc1ccc(O)c(O)c1-3` [8f, R(−)-2-(3-Fluoropropanoxy) 10,11-dihydroxyaporphine], the Ki [1, 10] is reported as over 2000 nM, the Ki [3, 9] is reported as 31 nM and the “D3^high affinity” value [6] is reported as “did not show any D3^high affinity”. For the same compound, the “Ki D1^high” value [4] was “No D1^high”.
With `CN1CCc2cc(OCCF)cc3c2[C@H]1Cc1ccc(O)c(O)c1-3` [8g, R(−)-2-(2-Fluoroethoxy) 10,11-dihydroxyaporphine] the Ki [1, 10] was over 2000 nM, the “D3 affinity (in words)” value [5] was “no detectable affinity” and the Ki [2] was 620 ± 260 nM. For the same compound, the “Ki D1^high” value [4] was “No D1^high”.
For `CCCN1CCc2cc(OCCCF)cc3c2[C@H]1Cc1cccc(O)c1-3` [11a], the Ki [7] was 100 ± 14 nM, the Ki [1, 10] was over 2000 nM and the “Ki D1^high” value [4] was “No D1^high”.
For `CCCN1CCc2cc(OCCF)cc3c2[C@H]1Cc1cccc(O)c1-3` [11b, R(−)-2-(2-fluoroethoxy)-11-hydroxy-N-n-propylnoraporphine], the Ki [7] was 410 ± 62 nM, the Ki [1] was over 2000 nM and the Ki [2] was 56 ± 37 nM. The “D2^high binding affinity (in words)” value [3] was “about the same”, the Ki [3, 9] was 3.5 ± 2 nM and the “Ki D1^high” value [4] was “No D1^high”.
Compound `CCN1CCc2cc(OCCCF)cc3c2[C@H]1Cc1cccc(O)c1-3` [11c] has a Ki [7] of 240 ± 33 nM, a Ki [8] of 1300 ± 200 nM and a Ki [2] of 400 ± 290 nM. The “D2^high binding affinity (in words)” value [3] was “overall improved binding affinity”, the Ki [3, 9] was 3.2 ± 2.2 nM and the “Ki D1^high” value [4] was “No D1^high”.
For `CCN1CCc2cc(OCCF)cc3c2[C@H]1Cc1cccc(O)c1-3` [11d, R(−)-2-(2-fluoroethoxy)-11-hydroxy-N-n-ethylnoraporphine], the Ki [7] was 550 ± 89 nM, the Ki ([8]; D1 human clone, [3H]SCH23390, read-out: Ki D1^low) was 810 ± 120 nM and the “Ki D1^high” value [4] was “No D1^high”.
For `CN1CCc2cc(OCCF)cc3c2[C@H]1Cc1cccc(O)c1-3` [11g, R(−)-2-(2-fluoroethoxy)-11-hydroxyaporphine], the Ki [5] was 0.89 ± 0.13 µM, the Ki [2] was 480 ± 130 nM and the Ki [3, 9] was 1.2 ± 0.4 nM.
With `Oc1cccc2c1-c1cccc3c1[C@@H](C2)N(CCCF)CC3` [compound 6, R(−)-11-Hydroxy-N-(3-fluoropropyl)noraporphine] the Ki [1, 10] was over 2000 nM, the Ki ([5]; bound given in μM) was over 10 µM and the Ki [2] was 860 ± 170 nM. The Ki [3, 9] was 6.9 ± 2.1 nM and the “Ki D1^high” value [4] was “No D1^high”.
